Laboratory results reported in patent US20260274894A1, “CYCLIC POLYPEPTIDE COMPOUND AND USE THEREOF” (BIVISION PHARMACEUTICALS, INC., priority 2023, published 2026).
Read-outs that look alike come from different tables or passages of the source. One block for each molecule: values may come before it. Numbered stars: 1 amine (or outer) side, 2 acyl side, 3 side chain; on linkers, the order of the positions; unused ones are H or OH. Bridge positions count the residues as written; N and C are the ends. Square brackets hold non-standard residues; d marks the D form. Side chains are listed from the residue outwards. Peptide text beside a SMILES is read from it. * marks the point of attachment. ξ: configuration not given here. NH(CH2)2O(CH2)2NHDOTA = O=C(O)CN1CCN(CC(=O)O)CCN(CC(=O)NCCOCCN*)CCN(CC(=O)O)CC1; X5 = CCCCCC(=O)N[C@@H](CSCc1cccc(C[*:2])c1)C(=O)N1CCC[C@@H](NC(=O)[*:1])C1; X6 = CCCCCC(=O)N[C@@H](CSCc1cccc(C[*:2])c1)C(=O)C1CCC[C@@H](CC(=O)[*:1])C1; DOTA = O=C(O)CN1CCN(CC(=O)O)CCN(CC(=O)*)CCN(CC(=O)O)CC1; Azetidine3carboxylic = O=C(C1CN([*:1])C1)[*:2]; mXylylene = c1cc(C[*:1])cc(C[*:2])c1; Cha = N[C@@H](CC1CCCCC1)C(=O)O; ξQ = NC(=O)CCC(N)C(=O)O; Hexanoyl = CCCCCC(=O)*; AEEA = NCCOCCOCC(=O)O; Ahx = NCCCCCC(=O)O; ξP = O=C(O)C1CCCN1

How the values were obtained:
[1] = Determination of C Log P (n-octanol/water partition, gamma counts); assay type: physicochemical
Protocol: Two EP tubes were taken, and 100 μL of saturated n-octanol aqueous solution and 80 µL of pure water were added to each tube, respectively. […] After shaking and mixing for 2 hours, the tubes were centrifuged at room temperature at 2000 rpm/min for 5 minutes. 20 μL was taken from the upper layer (lipid layer) and lower layer (aqueous layer) of each tube, and gamma counts were measured.

[2] = system: HT1080 2 #; assay: Therapeutic results of ^177Lu-labeled compound in tumor-bearing mice (tumor volume); assay type: in vivo, Balb/c Nude mice
Protocol: The body weight and tumor size were measured.

logP [1]: -2.69
SMILES: CCCCCC(=O)N[C@H]1CSCc2cccc(c2)CSC[C@@H](C(=O)N[C@@H](CCC(=O)NCCOCCNC(=O)CN2CCN(CC(=O)O)CCN(CC(=O)O)CCN(CC(=O)O)CC2)C(=O)O)NC(=O)[C@H](Cc2ccccc2)NC(=O)[C@H](CCC(N)=O)NC(=O)[C@H]([C@@H](C)O)NC(=O)[C@@H]2CCCN2C(=O)C2CN(C2)C1=O [^177Lu -JHDC06, metal not drawn] (Hexanoyl-C[Azetidine3carboxylic]PTQFCE(NH(CH2)2O(CH2)2NHDOTA)-OH; linker 1-7 via mXylylene)

logP [1]: -1.3
SMILES: CCCCCC(=O)N[C@H]1CSCc2cccc(c2)CSC[C@@H](C(=O)N[C@@H](CCCCNC(=O)CCCCCNC(=O)CN2CCN(CC(=O)O)CCN(CC(=O)O)CCN(CC(=O)O)CC2)C(=O)O)NC(=O)[C@H](CC2CCCCC2)NC(=O)C(CCC(N)=O)NC(=O)[C@H]([C@@H](C)O)NC(=O)C2CCCN2C(=O)C[C@@H]2CCCC(C2)C1=O (some centres unmarked) [^177Lu -JHDC13, metal not drawn] ([ξP]T[ξQ][Cha]CK([Ahx-DOTA])-OH; linker N-5 via X6)

logP [1]: -1.39
SMILES: CCCCCC(=O)N[C@H]1CSCc2cccc(c2)CSC[C@@H](C(=O)N[C@@H](CCCCNC(=O)COCCOCCNC(=O)CN2CCN(CC(=O)O)CCN(CC(=O)O)CCN(CC(=O)O)CC2)C(=O)O)NC(=O)[C@H](CC2CCCCC2)NC(=O)[C@H](CCC(N)=O)NC(=O)[C@H]([C@@H](C)O)NC(=O)[C@@H]2CCCN2C(=O)N[C@@H]2CCCN(C2)C1=O [^177Lu -JHDC14, metal not drawn] (PTQ[Cha]CK([AEEA-DOTA])-OH; linker N-5 via X5)

logP ([1]; read-out: ClogP): -1.6
SMILES: CCCCCC(=O)N[C@H]1CSCc2cccc(c2)CSC[C@@H](C(=O)N[C@@H](CCCCNC(=O)COCCOCCNC(=O)CN2CCN(CC(=O)O)CCN(CC(=O)O)CCN(CC(=O)O)CC2)C(=O)O)NC(=O)CNC(=O)[C@H](CC2CCCCC2)NC(=O)[C@H](CCC(N)=O)NC(=O)[C@H]([C@@H](C)O)NC(=O)C2CCCN2C(=O)N[C@@H]2CCCN(C2)C1=O (some centres unmarked) [^177Lu -JHDC15, metal not drawn] ([ξP]TQ[Cha]GCK([AEEA-DOTA])-OH; linker N-6 via X5)

logP ([1]; read-out: ClogP): -2.74
SMILES: CCCCCC(=O)N[C@H]1CSCc2cc(CSCCNC(=O)CN3CCN(CC(=O)O)CCN(CC(=O)O)CCN(CC(=O)O)CC3)cc(c2)CSC[C@@H](C(=O)O)NC(=O)[C@H](Cc2ccccc2)NC(=O)[C@H](CCC(N)=O)NC(=O)[C@H]([C@@H](C)O)NC(=O)[C@@H]2CCCN2C(=O)[C@@H]2CCCN2C1=O [^177Lu-FAP-2286, metal not drawn, reference compound]
Tumor volume (mm^3) ([2]; Day 0): 466.80 ± 118.37 mm^3
Tumor volume (mm^3) ([2]; Day 2): 630.23 ± 96.79 mm^3
Tumor volume (mm^3) ([2]; Day 6): 525.29 ± 100.39 mm^3
Tumor volume (mm^3) ([2]; Day 9): 1,041.55 ± 348.07 mm^3
Tumor volume (mm^3) ([2]; Day 13): 2,345.02 ± 298.66 mm^3
Tumor volume (mm^3) ([2]; Day 16): 3,180.37 ± 697.35 mm^3
